Legend:
[1] = system: HT-29 (human colon adenocarcinoma); assay: Inhibition of cell proliferation (MTT), HT-29; assay type: cell-based; conditions: Homo sapiens, 48 h of treatment (footnote), average ±SD of three experiments
Description: (§1) The ability of the synthetic compounds to inhibit cell proliferation was established by means of their IC50 values towards the tumor cell lines HT-29 (human colon adenocarcinoma), MCF-7 (breast adenocarcinoma) and A-549 (human pulmonary adenocarcinoma), as well as towards the nontumor cell line HEK-293 (human embryonic kidney cells). Results for compounds derived from CA-4 are presented in Table 1, along with the calculated selectivity indexes SIA (for HT-29 cell line), SIB (for MCF-7 cell line) and SIc (for A-549 cell line), obtained by dividing the IC50 values of the nontumor cell line (HEK-293) by those of the corresponding tumor cell line. The higher the SI index, the higher the therapeutic safety margin.
(§2) Cell culture media were purchased from Gibco (Grand Island, NY, USA). Fetal bovine serum (FBS) was a product of Harlan-Seralab (Belton, U.K.). Supplements and other chemicals not listed in this section were obtained from Sigma Chemical Co. (St. Louis, MO, USA). Plastics for cell culture were supplied by Thermo Fischer Scientific Inc., Madrid, Spain. All tested compounds were dissolved in DMSO at a concentration of 10 μg/mL and stored at −20 °C until use. HT-29, MCF-7, A-549 and HEK-293 cell lines were maintained in a Dulbecco’s modified Eagle’s medium (DMEM) containing glucose (1 g/L), glutamine (2 mM), penicillin (50 IU/mL), streptomycin (50 μg/mL) and amphotericin B (1.25 μg/mL), supplemented with 10% FBS. Cells from human non-small lung carcinoma (clone A549; ATCC n°: CCL2, MD, USA) were routinely grown at 37 °C in a humidified atmosphere of 5% CO2. Cells were maintained in a standard medium composed of RPMI 1640 (Lonza, Group Ltd., Basel, Switzerland), supplemented with 10% fetal bovine serum (FBS), 2 mM L-glutamine and 1% penicillin and streptomycin (Invitrogen). Cells were free from mycoplasma as determined by MycoAlert tests (Lonza, Group Ltd., Basel, Switzerland).
(§3) A total of 5 × 10^3 HT-29, MCF-7 or HEK-293 cells in a total volume of 100 μL of their respective growth media were incubated with serial dilutions of the tested compounds. The 3-(4,5-dimethylthiazol-2-yl)-2,5-diphenyltetrazolium bromide (MTT; Sigma Chemical Co.) dye reduction assay in a 96-well microplate was used, as previously described. […] The resulting formazan was dissolved in 150 μL of 0.04 N HCl/2-propanol and read at 550 nm. All determinations were carried out in triplicate.

[2] = system: HEK-293 (human embryonic kidney cells); assay: Inhibition of cell proliferation (MTT), nontumor HEK-293; assay type: cell-based; conditions: Homo sapiens, 48 h of treatment (footnote), average ±SD of three experiments
Description: as §1, §2, §3

[3] = system: MCF-7 (breast adenocarcinoma); assay: Inhibition of cell proliferation (MTT), MCF-7; assay type: cell-based, human; conditions: Homo sapiens, 48 h of treatment (footnote), average ±SD of three experiments
Description: as §1, §2, §3

purified tubulin = assay: Critical concentration (CrC) for the assembly of purified tubulin in GAB; assay type: biochemical; conditions: compound 27.5 μM, tubulin 25 μM, glycerol (GAB) and GTP assembly buffer; control 7.9 ± 1.2
Protocol: The effect on the self-assembly of tubulin was determined by measuring the critical concentration (CrC).

A-549 cells = assay: Cell cycle distribution by flow cytometry; assay type: cell-based, human; conditions: A-549, 24 h
Protocol: The effects of some CA-4 derivatives on the cell cycle were evaluated in A-549 cells.
The effects of some AmCA-4 derivatives on the cell cycle were also evaluated in A-549 cells.
The supernatant and trypsinated cells were harvested and then centrifuged (1200 rpm, 5 min, 4 °C). The cell pellet was resuspended in 1 mL of cold 70% ethanol for 30 min at −20 °C. Cells were centrifuged (2000 rpm, 5 min, 4 °C) to remove ethanol, and then the cell pellet was resuspended in the staining mix containing 50 µg/mL propidium iodide (Molecular Probes, France) and 100 µg/mL RNAse A (Sigma, France) in PBS for 20 min at room temperature in darkness. Samples were analyzed on a Becton Dickinson FACScan flow cytometer using the CellQuest software, which was also used to determine the percentage of cells in the G2/M phases of the cell cycle. PI was excited at 488 nm, and fluorescence analyzed at 620 nm on channel Fl-2.

[4] = system: A-549 (human pulmonary adenocarcinoma); assay: Inhibition of cell proliferation (MTT), A-549; assay type: cell-based; conditions: 48 h of treatment (footnote), average ±SD of three experiments
Description: as §1
as §2, with “Switzerland). […]” for “Switzerland).”

VEGF gene = VEGF gene expression by RT-qPCR in HT-29 cells; assay type: cell-based, human; conditions: HT-29, 48 h
Protocol: (§4) The effect on the expression of VEGF, hTERT and c-Myc genes has been studied for CA-4 and its derivatives that show selectivity indexes higher than 0.9 on the HT-29 cell line. The studied derivatives, together with the concentrations to which they have been tested, are CA-4 (15 μM); 4.1 (Gly, 5 μM); 4.5 (L-Pro, 25 μM); 4.9 (L-Met, 25 μM); 6.2 (D-Leu, 25 μM); 6.3 (D-Phe, 25 μM); 6.4 (D-Pro, 25 μM) and 6.5 (D-Ser, 10 μM). The expression of the genes was determined by RT-qPCR methodology, as described in the Materials and Methods section.
(§5) As regards AmCA-4 derivatives, the effect on the expression of the VEGF, hTERT and c-Myc genes has been studied on those that show IC50 in the low nanomolar range on the HT-29 cell line and/or on compounds whose selectivity indexes with respect to this cell line are higher than 1. The studied compounds, together with the concentrations to which they have been tested, are: CA-4 (15 μM), AmCA-4 (15 nM), 7.1 (7 nM), 7.2 (1.5 nM), 7.3 (4 nM), 7.4 (15 nM), 7.5 (2 nM), 7.7 (7 nM), 7.8 (15 nM), 7.9 (30 nM), 8.1 (7 nM), 8.2 (3 nM), 8.3 (10 nM), 8.4 (1.5 nM), 8.5 (4 nM), 8.7 (7 nM), 8.8 (3 nM) and 8.9 (4 nM).
(§6) HT-29 cells at 70–80% confluence were collected, and 1.5 × 10^5 cells were placed in a six-well plate in 1.5 mL of the medium. After 24 h, cells were incubated with the corresponding compounds for 48 h. Cells were collected, and the total cellular RNA from the HT-29 cells was isolated using an Ambion RNA Extraction Kit, according to the manufacturer’s instructions. The cDNA was synthesized by MMLV-RT with […] of extracted RNA and oligo(dT)15, according to the manufacturer’s instructions. Genes were amplified by a thermal cycler and StepOnePlus™ TaqMan® probes. TaqMan® Gene Expression Master Mix Fast, containing the appropriate buffer for the amplification conditions, dNTPs, thermostable DNA polymerase enzyme and a passive reference probe, was used. To amplify each of the genes, the predesigned primers sold by Life Technologies TaqMan® Gene Expression Assays Hs99999903-m1 (β-actin), Hs00900055-m1 (VEGF), Hs00972646-m1 (hTERT) and Hs00153408-m1 (c-Myc) were used.

c-Myc gene = c-Myc gene expression by RT-qPCR in HT-29 cells; assay type: cell-based, human; conditions: HT-29, 48 h
Protocol: as §4, §5, §6

hTERT gene = hTERT gene expression by RT-qPCR in HT-29 cells; assay type: cell-based, human; conditions: Homo sapiens, HT-29, 48 h, 1.5 nM, control 100
Protocol: as §4, §5, §6

[5] = concentration per compound as in Tables 6 and 7
[6] = Homo sapiens, A549, 48 h, Table 1
[7] = discussion, concentration per compound
[8] = Homo sapiens, 1.5 nM, control 100
[9] = Homo sapiens, A549, 48 h, Table 2

SMILES | IC50 ([1]; HT-29, Table 1) | IC50 ([2]; HEK293, Table 1) | IC50 ([3]; MCF7, Table 1) | CrC (critical concentration) (purified tubulin) | Effect on the cell cycle (A-549 cells; [5]) | IC50 [4, 6] | G0/G1 (A-549 cells; 75 μM) | G2/M (A-549 cells; 75 μM) | S (A-549 cells; 75 μM) | also measured
COC(=O)[C@@H]1CCCN1C(=O)COc1cc(/C=C\c2cc(OC)c(OC)c(OC)c2)ccc1OC [Compound 3.5] | 48 ± 5 µM | 20 ± 1 µM | 24 ± 2 µM | 10.4 ± 2.0 µM | do not exert any significant effect on the cells | 50 ± 10 µM |  |  |  | G0/G1 (A-549 cells; 100 μM): 77 ± 2%; G2/M (A-549 cells; 100 μM): 7 ± 1%; S (A-549 cells; 100 μM): 16 ± 2%
COC(=O)[C@H](CCSC)NC(=O)COc1cc(/C=C\c2cc(OC)c(OC)c(OC)c2)ccc1OC [Compound 3.9] | 16 ± 7 µM | 8 ± 1 µM | 10 ± 3 µM | 8.06 ± 0.04 µM |  | < 10 µM | 47 ± 4% | 36 ± 1% | 17 ± 3% | IC50 ([4]; Table 1): 10 ± 2 µM
COc1ccc(/C=C\c2cc(OC)c(OC)c(OC)c2)cc1OCC(=O)N1CCC[C@H]1C(=O)O [Compound 4.5] |  |  |  | 9.2 ± 0.5 µM | do not exert any significant effect on the cells | 110 ± 10 µM | 72% | 16% | 12% | IC50 ([1]; HT-29, 48 h, Table 1): 26 ± 13 µM; IC50 ([2]; HEK293, 48 h, Table 1): 45 ± 16 µM; IC50 ([3]; MCF7, 48 h, Table 1): 83 ± 16 µM
COC(=O)[C@H]1CCCN1C(=O)COc1cc(/C=C\c2cc(OC)c(OC)c(OC)c2)ccc1OC [Compound 5.4] | 50 µM | 5.7 ± 0.8 µM | 10 ± 4 µM | 9 ± 3 µM |  | 15 ± 1 µM | 36 ± 4% | 50 ± 1% | 14 ± 3% | 
COC(=O)[C@@H](CO)NC(=O)COc1cc(/C=C\c2cc(OC)c(OC)c(OC)c2)ccc1OC [Compound 5.5] |  |  |  | 9.2 ± 0.9 µM |  | 28 ± 1 µM |  |  |  | IC50 ([1]; HT-29, 48 h, Table 1): 11 ± 2 µM; IC50 ([2]; HEK293, 48 h, Table 1): 9 ± 3 µM; IC50 ([3]; MCF7, 48 h, Table 1): 7 ± 2 µM; cells accumulated in the G2/M phase (A-549 cells; concentration per compound as in Tables 6 and 7, control 14%): 50–70%
COc1ccc(/C=C\c2cc(OC)c(OC)c(OC)c2)cc1OCC(=O)N[C@@H](C(=O)O)C(C)C [Compound 6.1] | 45 ± 5 µM | 39 ± 6 µM | 46 ± 3 µM | 9.4 ± 1.3 µM | do not exert any significant effect on the cells | 54 ± 7 µM |  |  |  | G0/G1 (A-549 cells; 100 μM): 67 ± 2%; G2/M (A-549 cells; 100 μM): 13 ± 1%; S (A-549 cells; 100 μM): 20 ± 2%
COc1ccc(/C=C\c2cc(OC)c(OC)c(OC)c2)cc1NC(=O)[C@H](C)NC(=O)OCC1c2ccccc2-c2ccccc21 [Compound 7.2] |  |  |  | 9.4 ± 0.3 µM |  |  |  |  |  | downregulation of VEGF gene expression (VEGF gene; [7]): more than 60%; mrna remaining at 0.0015 µM (VEGF gene; [8]): 25%; downregulation of c-Myc gene expression (c-Myc gene; [7]): more than 60%; mrna remaining at 0.0015 µM (c-Myc gene; [8]): 22%; G0/G1 (A-549 cells; 0.5 µM): 28 ± 1%; G2/M (A-549 cells; 0.5 µM): 53 ± 2%; S (A-549 cells; 0.5 µM): 19 ± 2%; mrna remaining at 0.0015 µM (hTERT gene): 79%; IC50 [4, 9]: 0.242 ± 0.013 µM
COc1ccc(/C=C\c2cc(OC)c(OC)c(OC)c2)cc1NC(=O)[C@H](N)CC(C)C [Compound 10.2] |  |  |  | 7.0 ± 0.5 µM | do not accumulate a high percentage of cells in phase G2/M |  |  |  |  | IC50 ([1]; HT-29, 48 h, Table 2): 1.05 ± 0.14 µM; IC50 ([2]; HEK293, 48 h, Table 2): 0.43 ± 0.04 µM; IC50 ([3]; MCF7, 48 h, Table 2): 2 ± 0.9 µM; G0/G1 (A-549 cells; 0.5 µM): 63 ± 4%; G2/M (A-549 cells; 0.5 µM): 22 ± 2%; S (A-549 cells; 0.5 µM): 16 ± 3%; IC50 [4, 9]: 0.157 ± 0.007 µM

Source: paper PMC7037732, “Synthesis of Combretastatin A-4 and 3′-Aminocombretastatin A-4 derivatives with Aminoacid Containing Pendants and Study of their Interaction with Tubulin and as Downregulators of the VEGF, hTERT and c-Myc Gene Expression” (Molecules, 2020)
